How the values were obtained:
[1] = system: primary-derived human reproductive granulosa cells (HGC); experiment: Crystal violet cell viability assay; assay type: cell-based
Procedure: (§1) For cell assays, the D. orbita fractions were prepared fresh on the day of the experiment by dissolving in dimethyl sulfoxide (DMSO; 100%) at 100× the final concentration. These were diluted to a range of working concentrations (0.001–0.5 mg/mL) in complete cell assay medium to give a final working concentration per well of 1% DMSO. All samples were filtered through a […] (Sartorius) filter before use.
(§2) The primary-derived granulosa cells, along with the KGN, JAr and OVCAR-3 cell lines (10,000 cells per well) were plated into sterile white (opaque) 96-well plates (Interpath) and clear sterile 96-well plates (Interpath) in 0.1 mL per well of complete cell culture medium for 24 h (granulosa, KGN and OVCAR-3 cells) and 2 h (for JAr cells) to allow cell adherence. Standard curves of 0–40,000 cells per well (primary granulosa cells) and 0–80,000 cells per well (for KGN, JAr and OVCAR-3 cells) in six replicate wells were plated into clear 96-well plates, alongside the test plates. After the initial cell adherence period, spent media (media deficient of nutrients and serum) were discarded and primary-derived granulosa, KGN, JAr and OVCAR-3 cells were treated with the two D. orbita fractions at concentrations of 0.005, 0.01, 0.05, 0.1, and 0.5 mg/mL in a final volume of 0.1 mL per well in triplicate wells, for 4 and 24 h at 37 °C + 5% CO2. 1 h prior to the end of eachincubation period two positive controls were added; one for apoptosis (1 μg/mL DNase I), and the second for necrosis (2 μL per well of a cell lysis buffer; Promega). This experiment was repeated on three separate occasions (n = 3).
(§3) After 4 and 24 h exposure to D. orbita fractions in clear 96-well plates, media and all dead unattached cells were removed. The remaining adherent cells were rinsed with sterile 1× PBS and the crystal violet assay was performed. The crystal violet assay is a colourmetric assay in which only the nuclei of live cells take up the crystal violet stain (0.5%). The absorbance in the wells of the crystal violet plates were read on an automatic spectrophotometer at 570 nm, with reference absorbance 630 nm using KC Junior Software. This assay was repeated on three separate occasions (n = 3).

KGN cells [2] = experiment: Crystal violet cell viability assay; assay type: cell-based; conditions: Homo sapiens
Procedure: as §1, §2, §3

OVCAR-3 cells [3] = experiment: Crystal violet cell viability assay; assay type: cell-based; conditions: Homo sapiens, OVCAR-3, crystal violet
Procedure: as §1, §2, §3

JAr cells [4] = experiment: Crystal violet cell viability assay; assay type: cell-based; conditions: Homo sapiens
Procedure: as §1, §2, §3

KGN cells [5] = experiment: MTT cell viability assay; assay type: cell-based, human
Procedure: as §1, §2
(§4) After 4, 24, 48 and 72 h exposure to D. orbita fractions in clear 96-well plates, media and all dead unattached cells were removed. The remaining adherent cells were rinsed with sterile 1× PBS and the MTT assay was performed. The MTT assay measures the reduction of a yellow substrate to formazan, a purple precipitate, by the mitochondrial succinate dehydrogenase enzymes. A solution of 0.5 mg/mL MTT (was added to wells in a final volume of 0.1 mL. The plates were then incubated for 1 h (JAr cells) and 18 h (KGN, OVCAR-3 and GC cells) at 37 °C and 5% CO2. At the end of the incubation period, 80 μL/well 20% SDS in 0.02 M HCl was added and plate was incubated for a further 1 h at room temperature in the dark. The absorbance was the measured at 570 nm, with reference absorbance 630 nm, using an automatic spectrophotometer using KC Junior software. This assay was repeated on three separate occasions (n = 3).

OVCAR-3 cells [6] = experiment: MTT cell viability assay; assay type: cell-based, human; conditions: OVCAR-3, MTT
Procedure: as §1, §2, §4

[7] = system: primary-derived human reproductive granulosa cells (HGC); experiment: TUNEL staining (apoptosis); assay type: cell-based
Procedure: (§5) Primary-derived human granulosa cells and KGN cells were plated into Nunc Lab-Tek II CC2 Chamber Slides at 30,000 cells per chamber well in a final volume of 0.3 mL of DMEM/F12 + 10% FBS complete cell culture medium and incubated for 24 h at 37 °C + 5% CO2 to allow cell attachment to slides. Spent media (media deficient of nutrients and serum) and non-viable and non-adherent cellswere discarded and replaced with the D. orbita fractions at concentrations of 0.005, 0.01 and 0.05 mg/mL in a final volume of 0.3 mL of DMEM/F12 + 10% medium. A medium-only and a 1% DMSO control were also added before incubation for 4 and 24 h at 37 °C + 5% CO2. This experiment was repeated on three separate occasions (n = 3). The supernatant was removed and the cells rinsed with PBS before fixation with 4% paraformaldehyde for 25 min at room temperature. The DeadEnd™ Fluorometric TUNEL System (Promega) was performed as recommended by the manufacturer. Briefly the cells were treated with 0.2% Triton X-100 for 5 min, to permeablize the cells. The cells were rinsed in PBS before the addition of 50 μL of rTdT incubation buffer (Promega) at 37 °C for 1 h, protected from light. Cells were rinsed in 2× sodium chloride and sodium citratesolution (Promega) for 15 min at room temperature (25 °C) then rinsed again with PBS. The cells were counter-stained with 1 μg/mL propidium iodide (PI). A separate positive control slide of 1 μg/mL DNase I, and a negative control slide of buffer without rTdT, was prepared in conjunction with treatment slides. Cells were examined immediately and photographed at 200 and 400× magnification using a Fluorescence Olympus BX50 Microscope with filter Chroma 31001 at excitation 450–495 nm, Dichroic 505 and emission 515–555 nm for the green fluorescein of TUNEL and Chroma 31002 at excitation 515–550 nm, Dichroic 565 and emission 575–615 nm for the red fluorescence of the PI staining. Photomicrographs of four fields of view were taken for each treatment in each repeat of theassay and the number of TUNEL positive nuclei, stained bright green, were calculated as a fraction of the total number of PI stained nuclei, stained bright red, in each image. The average of the four fields was then calculated.

[8] = system: caspase-3 and -7 activity in KGN cells; experiment: Caspase-Glo 3/7 assay; assay type: cell-based, human
Procedure: as §2
(§6) After 4 and 24 h exposure to the D. orbita fractions in opaque 96-well plates, a combined membrane integrity and caspase 3/7 assay were performed on the primary-derived granulosa cells and KGN cells. The CytoTox-ONE Homogeneous Membrane Integrity Assay kit (Promega) was applied according to the manufacturer’s instructions. After the fluorescence was read at 535EX/590EM, the Caspase-Glo 3/7® assay (Promega) was applied to the primary granulosa cells and KGN cells according to the manufacturer’s instructions for1h and the plates were read on full light to capture total luminescence. The LDH-membrane integrity assay alone was performed on the JAr and OVCAR-3 cells using the CytoTox-ONE Homogeneous Membrane Integrity Assay kit (Promega). This assay was repeated on three separate occasions (n = 3).

[9] = system: caspase-3 and -7 activity in HGC; experiment: Caspase-Glo 3/7 assay; assay type: cell-based, human; conditions: 4 h treatment
Procedure: as §2, §6

KGN cells [10] = experiment: LDH membrane integrity assay (necrosis); assay type: cell-based, human; conditions: exposure time not stated at the place (4 and 24 h tested)
Procedure: as §2, §6

OVCAR-3 cells [11] = experiment: LDH membrane integrity assay (necrosis); assay type: cell-based, human; conditions: OVCAR-3, exposure time not stated at the place (4 and 24 h tested)
Procedure: as §2, §6

JAr cells [12] = experiment: LDH membrane integrity assay (necrosis); assay type: cell-based, human; conditions: exposure time not stated at the place (4 and 24 h tested)
Procedure: as §2, §6

[13] = system: primary-derived human reproductive granulosa cells (HGC); experiment: LDH membrane integrity assay (necrosis); assay type: cell-based
Procedure: as §2, §6

[14] = system: primary-derived human reproductive granulosa cells (HGC); experiment: MTT cell viability assay; assay type: cell-based; conditions: Homo sapiens, HGC, MTT
Procedure: as §1, §2, §4

JAr cells [15] = experiment: MTT cell viability assay; assay type: cell-based; conditions: Homo sapiens
Procedure: as §1, §2, §4

KGN cells [16] = experiment: TUNEL staining (apoptosis); assay type: cell-based, human
Procedure: as §5

## O=C1Nc2cc(Br)ccc2C1=O [6-Bromoisatin, 6-bromoisatin]
[1]; 4 h
  IC50: > 2230 µM
[1]; 24 h
  IC50: > 2230 µM
KGN cells [2]; 4 h
  IC50: 892 µM
KGN cells [2]; 24 h
  IC50: 223 µM
OVCAR-3 cells [3]; 4 h
  IC50: 446 µM
OVCAR-3 cells [3]; 24 h
  IC50: 268 µM
JAr cells [4]; 4 h
  IC50: 223 µM
JAr cells [4]; 24 h
  IC50: 178 µM
KGN cells [5]; 72 h
  IC50: < 22 µM
KGN cells [5]; Homo sapiens, 4 h
  IC50: 178 µM
KGN cells [5]; Homo sapiens, 24 h
  IC50: 446 µM
KGN cells [5]; Homo sapiens, 48 h
  IC50: 22 µM
KGN cells [5]; Homo sapiens, 72 h
  IC50: 22 µM
OVCAR-3 cells [6]; Homo sapiens, OVCAR-3, 4 h, 4 h
  IC50: 402 µM
OVCAR-3 cells [6]; Homo sapiens, OVCAR-3, 24 h, 24 h
  IC50: 446 µM
OVCAR-3 cells [6]; Homo sapiens, OVCAR-3, 48 h, 48 h
  IC50: 89 µM
OVCAR-3 cells [6]; Homo sapiens, OVCAR-3, 72 h, 72 h
  IC50: 22 µM
OVCAR-3 cells [6]; 72 h
  IC50: < 22 µM
[7]; 4 h, 0.05 mg/mL
  TUNEL positive cells: 27%
[7]; 24 h, 0.005 mg/mL
  TUNEL labelled cells: 10%
[8]; 4 h treatment
  concentration at which caspase-3 and -7 activity (apoptosis) significantly increased: 22 µM
[8]; 24 h, 22–2232 µM (0.005–0.5 mg/mL), dose-dependent
  change of caspase-3 and 7 activity: significantly decreased
[9]
  concentration at which caspase-3 and -7 activity was detected: 0.1 mg/mL
KGN cells [10]
  concentration at which LDH release significantly increased: 446 µM
OVCAR-3 cells [11]
  concentration at which LDH release significantly increased: 446 µM
JAr cells [12]
  concentration at which LDH release significantly increased: 446 µM
[13]; 4 h exposure
  concentration required to cause LDH release (necrosis): 2232 µM
[13]; 24 h exposure
  concentration required to cause LDH release (necrosis): 2232 µM
[14]; 4 h
  IC50: > 4460 µM
[14]; 24 h
  IC50: > 4460 µM
[14]; 48 h
  IC50: 1780 µM
[14]; 72 h
  IC50: 2230 µM
JAr cells [15]; 4 h
  IC50: 223 µM
JAr cells [15]; 24 h
  IC50: 446 µM
JAr cells [15]; 48 h
  IC50: 446 µM
KGN cells [16]; 4 h, 0.05 mg/mL
  TUNEL positive cells: 58%
KGN cells [16]; 24 h, 0.005 mg/mL
  TUNEL labelled cells: 53%

Source: article PMC3280530, “Marine Compounds Selectively Induce Apoptosis in Female Reproductive Cancer Cells but Not in Primary-Derived Human Reproductive Granulosa Cells” (Marine Drugs, 2012)
